Where a SMILES comes first, the peptide text is derived from it.
Legend:
[1] = target: T1, Aminopeptidase N from porcine kidney (Sus scrofa, UniProt P15145); assay: Inhibitory activity of SEDDS and excipients towards isolated aminopeptidase N; assay type: biochemical; settings: excipient (caprylic acid 20 µL or citronellol 10 µL) solubilized with 20 µL PEG-35 castor oil in HBS pH 6.5, 500 µL; 500 µL of 41.6 mU/mL enzyme; 5 mM L-Leucine-4-nitroanilide; 1 h, 37 °C, 400 rpm; n ≥ 3
T1 construct: purchased Merck KGaA (Darmstadt, Germany); host or cells: porcine kidney (tissue-derived enzyme suspension)
T1 sequence (P15145 1-963): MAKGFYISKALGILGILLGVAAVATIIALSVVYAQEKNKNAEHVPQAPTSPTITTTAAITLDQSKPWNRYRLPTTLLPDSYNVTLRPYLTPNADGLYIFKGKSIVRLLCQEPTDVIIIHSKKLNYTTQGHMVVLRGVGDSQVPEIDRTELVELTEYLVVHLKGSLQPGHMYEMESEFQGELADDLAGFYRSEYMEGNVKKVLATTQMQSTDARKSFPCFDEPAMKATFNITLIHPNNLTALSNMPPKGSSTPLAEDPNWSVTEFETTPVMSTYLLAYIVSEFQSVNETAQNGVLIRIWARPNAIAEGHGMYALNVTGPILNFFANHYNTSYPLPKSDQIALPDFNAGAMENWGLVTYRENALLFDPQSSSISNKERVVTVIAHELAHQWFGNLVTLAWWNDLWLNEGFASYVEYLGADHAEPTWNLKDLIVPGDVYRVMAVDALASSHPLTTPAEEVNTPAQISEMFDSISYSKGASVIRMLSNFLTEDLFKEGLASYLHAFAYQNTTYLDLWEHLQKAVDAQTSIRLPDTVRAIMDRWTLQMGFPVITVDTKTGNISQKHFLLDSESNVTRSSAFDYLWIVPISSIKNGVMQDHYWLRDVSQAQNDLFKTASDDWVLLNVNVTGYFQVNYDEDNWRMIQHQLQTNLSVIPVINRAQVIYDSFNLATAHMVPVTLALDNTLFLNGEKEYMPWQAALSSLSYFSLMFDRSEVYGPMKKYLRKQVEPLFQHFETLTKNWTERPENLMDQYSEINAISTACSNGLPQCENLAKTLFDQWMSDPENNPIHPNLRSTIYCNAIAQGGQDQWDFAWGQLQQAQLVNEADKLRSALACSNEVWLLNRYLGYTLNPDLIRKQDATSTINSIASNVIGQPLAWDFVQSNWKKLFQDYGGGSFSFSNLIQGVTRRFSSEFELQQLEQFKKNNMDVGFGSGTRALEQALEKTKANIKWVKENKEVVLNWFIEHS
Method: Furthermore, a possible inhibitory effect of SEDDS and excipients on aminopeptidase N activity was investigated using the isolated enzyme, following a method previously described with slight modifications [28]. Surfactant solutions were prepared in 20 mM HBS pH 6.5 in the same concentration as they are present in SEDDS. Either 5% (v/v) SEDDS or surfactant solution were mixed in 500 µL together with further 500 µL of a 41.6 mU/mL enzyme solution in 20 mM HBS pH 6.5. L-Leucine- 4-nitroanilide was added prior to SEDDS and surfactant solution in a final concentration of 5 mM.
A 5 mM substrate solution served as the positive control, representing 100% enzyme activity. The samples were incubated on a thermomixer for 1 h at 37 °C and 400 rpm agitation. To stop the enzymatic reaction, 1 mL of methanol containing 2% (v/v) TFA were added to each sample. After centrifugation at 12,500 rpm, the concentration of 4-nitroaniline in the supernatant was quantified. The inhibitory activity was calculated using the following Eq. (5):5 Inhibitoryactivity[%]=100-Abssample/Abspositivecontrol×100

[2] = target: T2, membrane-bound aminopeptidase N on rat intestinal mucosa (Rattus norvegicus, UniProt P15684)
T2 sequence (P15684 1-965): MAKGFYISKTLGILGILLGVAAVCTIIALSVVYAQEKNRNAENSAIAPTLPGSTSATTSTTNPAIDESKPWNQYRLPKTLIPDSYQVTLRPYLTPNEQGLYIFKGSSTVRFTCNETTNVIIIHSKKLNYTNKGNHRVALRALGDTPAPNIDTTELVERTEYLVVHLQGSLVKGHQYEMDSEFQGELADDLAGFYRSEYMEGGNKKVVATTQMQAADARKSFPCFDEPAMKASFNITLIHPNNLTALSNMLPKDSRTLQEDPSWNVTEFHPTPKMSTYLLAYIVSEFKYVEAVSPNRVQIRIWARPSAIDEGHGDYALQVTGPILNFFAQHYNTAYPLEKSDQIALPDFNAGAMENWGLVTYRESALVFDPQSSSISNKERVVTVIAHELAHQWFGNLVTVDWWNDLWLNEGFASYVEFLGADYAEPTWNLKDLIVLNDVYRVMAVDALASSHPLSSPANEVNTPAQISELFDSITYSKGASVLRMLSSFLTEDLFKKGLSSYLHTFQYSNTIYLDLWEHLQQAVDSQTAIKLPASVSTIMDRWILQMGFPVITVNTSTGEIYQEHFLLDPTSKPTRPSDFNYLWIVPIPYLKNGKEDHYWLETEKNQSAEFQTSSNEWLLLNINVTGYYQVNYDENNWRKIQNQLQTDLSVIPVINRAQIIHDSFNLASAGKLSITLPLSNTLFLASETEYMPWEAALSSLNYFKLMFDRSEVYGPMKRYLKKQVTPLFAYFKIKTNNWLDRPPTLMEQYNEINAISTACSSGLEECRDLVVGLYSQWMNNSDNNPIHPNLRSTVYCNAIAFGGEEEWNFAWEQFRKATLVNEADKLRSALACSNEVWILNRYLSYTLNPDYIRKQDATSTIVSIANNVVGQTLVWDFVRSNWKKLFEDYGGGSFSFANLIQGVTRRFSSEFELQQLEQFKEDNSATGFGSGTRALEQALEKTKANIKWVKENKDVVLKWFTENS
Method: Rat intestine was obtained freshly from male Sprague–Dawley rats (200–300 g) supplied by Janvier Labs (Saint Berthevin, France). The middle section of the small intestine was longitudinally dissected and thoroughly washed with HBS pH 6.5 to remove intestinal contents. The intestine was stored at − 20 °C in HBS until further use.
After thawing the small intestine was cut into 1 × 1 cm pieces that were placed in tubes containing 500 µL of HBS. SEDDS with dissolved HIP were emulsified in a concentration of 10% (v/v) in HBS. 500 µL of nanoemulsions were added to each tube to obtain a final concentration of 5% (v/v) SEDDS. Thereafter, samples were incubated on a thermomixer at 37 °C with continuous agitation at 400 rpm. Over a 4 h time period, 100 µL aliquots were withdrawn from each sample at predefined time intervals. To terminate the enzymatic reaction, an equal volume of methanol containing 2% (v/v) TFA was added to each aliquot. Subsequently, the concentration of tuftsin in the supernatant was quantified using HPLC.

[3] = pH 6.5
Method: The rat intestine was carefully cleaned to remove its intestinal contents and then cut into 1.5 cm sections. These sections were fixed in Ussing chambers with a surface area of 0.64 cm^2 and 1 mL of 20 mM HBS pH 6.5 was added to each acceptor chamber, while the donor chambers were filled with 1 mL of 5% (v/v) SEDDS in 20 mM HBS pH 6.5, facing the luminal side of the intestine.
The Ussing chambers were incubated in a water bath at 37 °C, and every 1 h, 100 µL aliquots were withdrawn from the acceptor chambers over a 4 h period. Withdrawn samples were replaced with pre-warmed HBS to maintain sink conditions. The concentration of permeated tuftsin in the collected aliquots was determined via HPLC and the apparent permeability coefficient [30]was subsequently calculated using the following Eq. (6):6 Papp[cms^-1]=Q[μg]/Acm^2cμgmL^-1t[s] where Papp is the apparent permeability coefficient, Q is the total amount of test substance permeated through the mucosa, A is the diffusion area of the Ussing chamber system, c is the initial concentration of tuftsin in the donor compartment and t is the total time of experiment.

Row | Inhibitory activity of single SEDDS-3 excipients towards aminopeptidase N [1] [%] | Time to entire degradation of the unformulated peptide (abstract) [2] [min] | Apparent permeability coefficient (Papp) of tuftsin [3] | Tuftsin permeated after 4 h of cumulative permeation (% of initial tuftsin) [3] [%] | Structure (SMILES)
1 | 18 | – | – | – | CC(C)=CCCC(C)CCO (stereo not shown) [citronellol]
2 | – | ≤ 20 | 0.8 × 10^–5 cm/s | 7 | C[C@@H](O)[C@H](N)C(=O)N[C@@H](CCCCN)C(=O)N1CCC[C@H]1C(=O)N[C@@H](CCCNC(=N)N)C(=O)O [tuftsin, Tuftsin] (H-TKPR-OH)
